Measurements reported in publication PMC11504230, “Comparative Properties of Helical and Linear Amphipathicity of Peptides Composed of Arginine, Tryptophan, and Valine” (Antibiotics, 2024).
Ends that are not written are not given here.

Key:
A. baumannii = assay type: cell-based; conditions: 18 h
Procedure: (§1) To examine antibacterial activity, we used minor modifications of a standard growth inhibition assay endorsed by the Clinical and Laboratory Standards Institute (CLSI), as previously described. Bacterial inocula for testing were prepared from exponential growth phase by diluting overnight cultures at 1:100 with fresh Tryptic soy broth (TSB) (Millipore Sigma, USA, Cat. No. 22092-500G) and incubating for an additional 3–4 h. Bacteria were spun at 3000× g for 10 min and the pellet was resuspended in phosphate-buffered saline (PBS) (Millipore Sigma, St Louis, MO, USA, Cat. No. P4417) to determine bacterial turbidity using a Den-1B densitometer (Grant Instruments, Beaver Falls, PA, USA) at 0.5 McFarland (unit of bacterial density) corresponding to […]. The prepared bacteria were incubated with each of the indicated peptides at a maximum test concentration of 16 µM and serially diluted in MHB2 and RPMI 1640 (Corning, NY, USA, Cat. No. 15-040-CM) at a 1:1 ratio. The plates were kept in an 8-drawer incubator for 18 h at 37 °C. A robotic system takes a plate from the drawer every hour and feeds a plate reader, which records the kinetics of bacterial growth at 570 nm to examine growth inhibition in real time (BioTek Instruments, Winooski, VT, USA). The minimum inhibitory concentration or MIC is the minimum peptide concentration that prevented bacterial growth, and it is objectively indicated by a flat (horizontal) line in the bacterial growth kinetic graph. Most assays are completed in duplicate. To assay for anti-biofilm activities, the 96-well plate from the growth inhibition assay is incubated for an additional 6 h (24 h total). The biomass was detected with crystal violet using a plate reader at A570, as previously described.
(§2) Figure 2 Comparative antibacterial activities of the H-RWV and L-RWV series. The 2 series were compared against MDR strains of 6 organisms as indicated. The test medium was composed of physiologically relevant RFM (60% RPMI plus 10% fetal bovine serum or FBS and 30% cation-adjusted MHB); endogenous AMP control was Indolicidin (Indo); small-molecule antibiotic controls were cefazolin, ceftazidime (Ceft), and meropenem (Mero). MIC, minimum inhibitory concentration with means represented by the black and red horizontal bars, which are used to determine the MOLs (minimum optimal lengths) indicated by the red and black arrows. (A–F) is based on the test organism as indicated. Data are representative of 2 independent trials. Corresponding Table 2 provides the mean MICs for the strains of each organism. The numbers stand for each peptide: 8, L/H-RWV8; 10, L/H-RWV10, etc.; red bar, mean MIC of L-RWV peptides and black bars, mean MIC of H-RWV peptides.

E. coli = assay type: cell-based; conditions: 18 h
Procedure: as §1, §2

E. faecium = assay type: cell-based; conditions: 18 h
Procedure: as §1, §2

Enterobacter spp. = assay type: cell-based; conditions: 18 h
Procedure: as §1, §2

K. pneumoniae = assay type: cell-based; conditions: 18 h
Procedure: as §1, §2

P. aeruginosa = assay type: cell-based; conditions: 18 h
Procedure: as §1, §2

S. aureus = assay type: cell-based; conditions: 18 h
Procedure: as §1, §2

[1] = system: S. aureus (SA719) biofilm; assay type: cell-based; conditions: 24 h
Procedure: as §1
Figure 3 Antibiofilm activities of the […] peptides. MBEC or minimum biofilm elimination concentration is the minimum concentration at which no biomass was detected by the crystal violet method. Standard deviations reflect differences between 2 independent trials. The dashed line is to clarify the mid-point between 0 and 5.

human red blood cells = assay: Red blood cell lysis; assay type: cell-based; conditions: H-RWV16 versus L-RWV12
Procedure: Lytic effects on human red blood cells were examined as previously described. Briefly, RBCs were separated by histopaque differential centrifugation using blood anonymously obtained from Vitalant (Pittsburgh, PA, USA). For RBC lysis assay, the isolated RBCs were resuspended in PBS at a concentration of 5%. The peptides were serially diluted 2-fold in 100 µL of PBS with a starting concentration of 32 µM. A volume of 100 µL of the prepared 5% RBC solution was then added for a final concentration of 2.5% RBC and incubated for 1 h. After incubation, the plates were centrifuged at 1000× g for 7 min and the supernatant was removed to measure its OD. In parallel, a standard curve of RBC lysis was generated by lysing the RBCs with deionized water at […] RBC dilutions of 10, 20, 30, 40, 50, 60, 70, 80, 90, and 100% to determine the percentage of RBC lysis in the test samples. Both the treated test samples and standard curve were read at A570. Three independent trials of the experiment were conducted.
Figure 4 Human RBC lytic effects of the […] peptides. Indolicidin (Indo) was used as control; RBC lysis was assayed in PBS as described in Methods. For clarity, the dashed line indicates the 10% lysis mark across the graph as a critical point between minor (<10%) and moderate (>10%) RBC lysis.

| Sequence | Mean MIC, A. baumannii (A. baumannii) [µM] | Mean MIC, E. coli (E. coli) [µM] | Mean MIC, E. faecium (E. faecium) [µM] | Mean MIC, Enterobacter spp. (Enterobacter spp.) [µM] | Mean MIC, K. pneumoniae (K. pneumoniae) [µM] | Mean MIC, P. aeruginosa (P. aeruginosa) [µM] | Mean MIC, S. aureus (S. aureus) [µM] | MBEC (minimum biofilm elimination concentration, no detectable biomass) [1] [µM] | Lytic effect on human RBCs relative to L-RWV12 (human red blood cells) [fold] | RBC lysis [%] |
| --- | --- | --- | --- | --- | --- | --- | --- | --- | --- | --- |
| RRRRRRRRWWWWVVVV [L-RWV16] | 21 ± 11 | 24 ± 10 | 32 | 32 | 32 | 32 | 32 |  |  |  |
| RRRRRRRWWWWVVV [L-RWV14] | 7.4 ± 6.2 | 4.4 ± 2.7 | 19 ± 11 | 16.9 ± 14 | 3 ± 1 | 21 ± 9 | 3 ± 1 | 2.6 ± 1.2 |  |  |
| RRRRRRWWWWVV [L-RWV12] |  | 4.6 ± 1.6 |  |  |  |  |  | 2.5 ± 1.3 |  |  |
| RRRRRWWWWV [L-RWV10] | 8.5 ± 3.6 | 8 | 21 ± 9.5 | 32 | 26 ± 8.2 | 22 ± 7.7 | 26 ± 8 |  |  |  |
| RRRRWWWW [L-RWV8] | 10.2 ± 0.9 | 16 | 30 ± 5 | 30.2 ± 5.3 | 20 ± 7.4 | 30 ± 5.2 | 20. ± 0.7 |  |  |  |
| RRVWRWVRRVWRWVRR [H-RWV16] |  |  |  |  |  |  |  |  | 3 |  |
| RRVWRWVRRWWR [H-RWV12] | 6 ± 2.3 | 6.4 ± 2.2 | 28 ± 10 | 28 ± 7.4 | 18 ± 12 | 24 ± 8 | 18 ± 12 | 2 |  |  |
| RRVWRWVRRWWRRV [H-RWV14] | 8 ± 5.6 |  | 17 ± 12 | 7.2 ± 5.6 | 7.5 ± 12 | 12 ± 4 | 7.5 ± 12 | 1.7 ± 0.5 |  | 3 |
| RRWWRRVWRW [H-RWV10] | 22 ± 12 | 22 ± 8.8 | 19 ± 13 | 32 | 29 ± 6.5 | 24 ± 8 | 29 ± 6.5 |  |  |  |
| RRWWRRWW [H-RWV8] | 24 ± 9.2 | 24 ± 8.8 | 32 | 32 | 29 ± 7.1 | 27 ± 7.5 | 29 ± 7 |  |  |  |
